The source of these data is patent publication US12439914B2, “Bactrocera oleae attractant composition and uses thereof” (CEARITIS, priority 2020, dated 2025).

The test has as its system Bactrocera oleae. In words: Attractiveness in glass Y-tube olfactometer (behavioural response of the olive fruit fly). In kind it is in vivo. Particulars: 10 ng on filter paper vs dichloromethane control; individual female flies 8 to 30 days old; Y-tube choice. The procedure: The attractiveness of the active substances of the attractant composition according to the invention was evaluated using a glass Y-tube olfactometer (internal diameter 4.5 cm; length of the arm 22 cm; length of the main stem 24.5 cm). The assembly was placed in a lit room at 22° C. Screws held the Y-tube in an inclined position (angle of […] between the Y-tube and the horizontal plane). The Y-tube was placed in the centre of an artificially lit box (60×60×60 cm), covered with sheets on the outside in order to avoid external stimuli. The tubes at the end of the Y were connected to two glass adaptors, to which 30 ml glass flasks were attached, each containing a 1 cm^2 piece of filter paper. […]
Individual female flies—from 8 to 30 days old—were released one by one into the first cm of the base tube of the olfactometer using a manual aspirator. […] The air suction tube was connected to the glass Y-tube and the time until the flies reached the end of one of the arms of the Y was recorded. […]
In order to evaluate the attractiveness of one molecule vis-à-vis Bactrocera oleae, the data collected were analyzed with a khi2 statistical test on Excel and R. The p value, obtained in this test, indicates the probability of obtaining the same value if the null hypothesis was true. […]

For the compound `C=C1CC/C=C(\C)CC[C@@H]2[C@@H]1CC2(C)C` [Beta-caryophyllene, beta-caryophyllene], the “Behavioural response obtained using the substance tested (expressed in %)” value was 70.00%. As for `CCCCCCCCCC=O` [Decanal, decanal], the “Behavioural response obtained using the substance tested (expressed in %)” value was determined as 68.00%.
